Laboratory results: PubChem BioAssay AID1963982 (Molecular Pharmacology Branch, DTP, NCI, 2024)
pIC50: −log10 of the molar value.

System: 313798-341-R-J2-PDC spheroids, viability
Experiment: Anticancer human tumor 313798-341-R-J2-PDC patient-derived cervical squamous cell carcinoma cell line growth inhibition [PI3K]
Details: spheroids with HUVEC and MSC; for pIC50: curve of first compound; for viability, T/C: stronger effect = lower value; active = viability on the fitted dose curve at most 10% of control; inactive = the rest
Method in brief: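 Multi-cell spheroids combine tumor cells with HUVEC and human MSCs, treated with targeted agents alone or with inavolisib, alpelisib, duvelisib or copanlisib. Concentrations fall in half-log steps from at or near clinical Cmax, or from 10 microM where Cmax is unknown; viability read-out.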

[1] = second compound 0.0316 µM, first compound 0.0316 µM
[2] = second compound 0.0316 µM, first compound 0.1 µM
[3] = second compound 0.1 µM, first compound 0.0316 µM
[4] = second compound 0.1 µM, first compound 0.1 µM
[5] = second compound 0.316 µM, first compound 0.0316 µM
[6] = second compound 0.316 µM, first compound 0.1 µM
[7] = second compound 1 µM, first compound 0.0316 µM
[8] = second compound 1 µM, first compound 0.1 µM
[9] = second compound 3.16 µM, first compound 0.0316 µM
[10] = second compound 3.16 µM, first compound 0.1 µM
[11] = second compound 10 µM, first compound 0.0316 µM
[12] = second compound 10 µM, first compound 0.1 µM
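Also: spheroids exposed to compounds for seven days.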
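For viability, T/C in this document: 100% = DMSO vehicle control viability.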

C[C@@H](NC(=O)c1ncnc(N)c1Cl)c1ncc(C(=O)Nc2cc(C(F)(F)F)c(Cl)cn2)s1 + CC(Nc1ncnc2nc[nH]c12)c1cc2cccc(Cl)c2c(=O)n1-c1ccccc1
inactive: viability, T/C [1] 90.2% | viability, T/C [2] 104% | viability, T/C (second compound 0.0316 µM, first compound 0.316 µM) 106% | viability, T/C (second compound 0.0316 µM, first compound 1 µM) 112% | viability, T/C (second compound 0.0316 µM, first compound 3.16 µM) 100% | viability, T/C (second compound 0.0316 µM, first compound 10 µM) 101% | viability, T/C [3] 98.3% | viability, T/C [4] 100% | viability, T/C (second compound 0.1 µM, first compound 0.316 µM) 98.3% | viability, T/C (second compound 0.1 µM, first compound 1 µM) 98.7% | viability, T/C (second compound 0.1 µM, first compound 3.16 µM) 110% | viability, T/C (second compound 0.1 µM, first compound 10 µM) 117% | viability, T/C [5] 99.3% | viability, T/C [6] 102% | viability, T/C (second compound 0.316 µM, first compound 0.316 µM) 101% | viability, T/C (second compound 0.316 µM, first compound 1 µM) 97.7% | viability, T/C (second compound 0.316 µM, first compound 3.16 µM) 103% | viability, T/C (second compound 0.316 µM, first compound 10 µM) 105% | viability, T/C [7] 98.5% | viability, T/C [8] 106% | viability, T/C (second compound 1 µM, first compound 0.316 µM) 90.9% | viability, T/C (second compound 1 µM, first compound 1 µM) 101% | viability, T/C (second compound 1 µM, first compound 3.16 µM) 104% | viability, T/C (second compound 1 µM, first compound 10 µM) 95.7% | viability, T/C [9] 98% | viability, T/C [10] 100% | viability, T/C (second compound 3.16 µM, first compound 0.316 µM) 98.6% | viability, T/C (second compound 3.16 µM, first compound 1 µM) 98.9% | viability, T/C (second compound 3.16 µM, first compound 3.16 µM) 106% | viability, T/C (second compound 3.16 µM, first compound 10 µM) 96.1% | viability, T/C [11] 94% | viability, T/C [12] 85.2% | viability, T/C (second compound 10 µM, first compound 0.316 µM) 82.8% | viability, T/C (second compound 10 µM, first compound 1 µM) 86.7% | viability, T/C (second compound 10 µM, first compound 3.16 µM) 89.9% | viability, T/C (second compound 10 µM, first compound 10 µM) 88.6%
< 5.00: pIC50 (second compound 0.0316 µM) | pIC50 (second compound 0.1 µM) | pIC50 (second compound 0.316 µM) | pIC50 (second compound 1 µM) | pIC50 (second compound 3.16 µM) | pIC50 (second compound 10 µM)

Cn1ncnc1[C@H]1c2n[nH]c(=O)c3cc(F)cc(c23)N[C@@H]1c1ccc(F)cc1 + CC(Nc1ncnc2nc[nH]c12)c1cc2cccc(Cl)c2c(=O)n1-c1ccccc1
< 7.00: pIC50 (second compound 0.0316 µM) | pIC50 (second compound 0.1 µM) | pIC50 (second compound 0.316 µM) | pIC50 (second compound 1 µM) | pIC50 (second compound 3.16 µM) | pIC50 (second compound 10 µM)
inactive: viability, T/C (second compound 0.0316 µM, first compound 0.000316 µM) 110% | viability, T/C (second compound 0.0316 µM, first compound 0.001 µM) 94.2% | viability, T/C (second compound 0.0316 µM, first compound 0.00316 µM) 89.2% | viability, T/C (second compound 0.0316 µM, first compound 0.01 µM) 109% | viability, T/C [1] 89.5% | viability, T/C [2] 77.1% | viability, T/C (second compound 0.1 µM, first compound 0.000316 µM) 94.7% | viability, T/C (second compound 0.1 µM, first compound 0.001 µM) 101% | viability, T/C (second compound 0.1 µM, first compound 0.00316 µM) 91.8% | viability, T/C (second compound 0.1 µM, first compound 0.01 µM) 96.7% | viability, T/C [3] 97.4% | viability, T/C [4] 84% | viability, T/C (second compound 0.316 µM, first compound 0.000316 µM) 92.6% | viability, T/C (second compound 0.316 µM, first compound 0.001 µM) 103% | viability, T/C (second compound 0.316 µM, first compound 0.00316 µM) 102% | viability, T/C (second compound 0.316 µM, first compound 0.01 µM) 105% | viability, T/C [5] 85.8% | viability, T/C [6] 85.2% | viability, T/C (second compound 1 µM, first compound 0.000316 µM) 102% | viability, T/C (second compound 1 µM, first compound 0.001 µM) 102% | viability, T/C (second compound 1 µM, first compound 0.00316 µM) 103% | viability, T/C (second compound 1 µM, first compound 0.01 µM) 95.5% | viability, T/C [7] 90.9% | viability, T/C [8] 86.2% | viability, T/C (second compound 3.16 µM, first compound 0.000316 µM) 92.9% | viability, T/C (second compound 3.16 µM, first compound 0.001 µM) 91.1% | viability, T/C (second compound 3.16 µM, first compound 0.00316 µM) 87.7% | viability, T/C (second compound 3.16 µM, first compound 0.01 µM) 95.5% | viability, T/C [9] 84.1% | viability, T/C [10] 79.9% | viability, T/C (second compound 10 µM, first compound 0.000316 µM) 88.1% | viability, T/C (second compound 10 µM, first compound 0.001 µM) 80.8% | viability, T/C (second compound 10 µM, first compound 0.00316 µM) 73.8% | viability, T/C (second compound 10 µM, first compound 0.01 µM) 78.6% | viability, T/C [11] 74.3% | viability, T/C [12] 61.5%
